Assay results: patent US20120157439A1, “RAF INHIBITOR COMPOUNDS AND METHODS OF USE THEREOF” (GENENTECH, INC., priority 2009, published 2012)
Where two headings read alike, the source gives them in different places.

Molecular target: T1, V600E full-length B-Raf (Homo sapiens, UniProt P15056, V600E)
T1 construct: 1 μM FSBA-MEK and 20 nM V600E full-length B-Raf; made in house; host or cells: sf9 insect cells (baculovirus)
Test: B-Raf IC50 Assay (B-RAF V600E inhibition assay, Example A)
Type: biochemical
Text: Determining the activity of Raf in the sample is possible by a number of direct and indirect detection methods (US 2004/0082014). Activity of human recombinant B-Raf protein may be assessed in vitro by assay of the incorporation of radio labeled phosphate to recombinant MAP kinase (MEK), a known physiologic substrate of B-Raf, according to US 2004/0127496 and WO 03/022840. The activity/inhibition of V600E full-length B-Raf was estimated by measuring the incorporation of radio labeled phosphate from [γ-33P]ATP into FSBA-modified wild-type MEK (see Example A).
Activity of human recombinant B-Raf protein may be assessed in vitro by assay of the incorporation of radio labeled phosphate to recombinant MAP kinase (MEK), a known physiologic substrate of B-Raf, according to U.S. Patent Appl. Publication No. 2004/0127496 and WO 03/022840. Catalytically active human recombinant B-Raf protein is obtained by purification from sf9 insect cells infected with a human B-Raf recombinant baculovirus expression vector.
The activity/inhibition of V600E full-length B-Raf was estimated by measuring the incorporation of radio labeled phosphate from [γ-33P]ATP into FSBA-modified wild-type MEK. The […] assay mixtures contained 25 mM Na Pipes, pH 7.2, 100 mM KCl, 10 mM MgCl2, 5 mM β-glycerophosphate, 100 μM Na Vanadate, 4 μM ATP, 500 nCi [γ-33P]ATP, 1 μM FSBA-MEK and 20 nM V600E full-length B-Raf. Incubations were carried out at 22° C. in a Costar 3365 plate (Corning). Prior to the assay, the B-Raf and FSBA-MEK were preincubated together in assay buffer at 1.5× (20 μL of 30 nM and 1.5 μM, respectively) for 15 minutes, and the assay was initiated by the addition of 10 μL of […]. Following the 60-minute incubation, the assay mixtures were quenched by the addition of 100 μL of 25% TCA, the plate was mixed on a rotary shaker for 1 minute, and the product was captured on a Perkin-Elmer GF/B filter plate using a Tomtec Mach III Harvester. After sealing the bottom of the plate, 35 μL of Bio-Safe II (Research Products International) scintillation cocktail were added to each well and the plate was top-sealed and counted in a Topcount NXT (Packard).

[1] = B-Raf V600E assay of Example A: less than 100 nM, read-out: IC50
[2] = B-Raf V600E assay of Example A: less than about 1 μM, read-out: IC50
[3] = incorporation of radio labeled phosphate from [γ-33P]ATP into FSBA-modified wild-type MEK, 4 μM ATP, 20 nM V600E full-length B-Raf, 60-minute incubation, 22° C., read-out: BRAF V600E IC50

T1 sequence (P15056 whole entry V600E): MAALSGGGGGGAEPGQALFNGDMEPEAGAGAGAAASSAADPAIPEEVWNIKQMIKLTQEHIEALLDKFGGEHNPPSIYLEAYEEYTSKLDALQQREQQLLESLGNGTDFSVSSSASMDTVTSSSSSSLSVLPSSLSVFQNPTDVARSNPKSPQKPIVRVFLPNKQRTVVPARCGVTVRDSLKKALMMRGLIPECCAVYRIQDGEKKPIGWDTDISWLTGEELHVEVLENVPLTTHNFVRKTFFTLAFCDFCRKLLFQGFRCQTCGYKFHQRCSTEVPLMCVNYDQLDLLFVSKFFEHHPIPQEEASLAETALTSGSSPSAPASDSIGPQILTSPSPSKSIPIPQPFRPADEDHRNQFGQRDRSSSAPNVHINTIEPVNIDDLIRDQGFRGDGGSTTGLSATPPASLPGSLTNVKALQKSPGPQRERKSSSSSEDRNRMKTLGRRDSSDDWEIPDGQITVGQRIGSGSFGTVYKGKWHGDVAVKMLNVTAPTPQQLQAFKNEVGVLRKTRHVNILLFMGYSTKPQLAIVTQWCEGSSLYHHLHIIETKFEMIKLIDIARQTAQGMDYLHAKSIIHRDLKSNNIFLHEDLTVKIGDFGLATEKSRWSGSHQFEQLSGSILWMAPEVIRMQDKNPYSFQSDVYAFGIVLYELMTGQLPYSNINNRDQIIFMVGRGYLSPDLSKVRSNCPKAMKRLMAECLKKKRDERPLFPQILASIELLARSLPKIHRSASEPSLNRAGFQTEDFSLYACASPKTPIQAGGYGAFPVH

Row | Compound | IC50 [1] [µM] | IC50 [2] [µM] | IC50 [3] [µM]
1 | CCCS(=O)(=O)Nc1ccc(F)c(NC(=O)c2cn(C)c3c(N)ncnc23)c1F [Example 1, 4-amino-5-methyl-pyrrolo[3,2-d]pyrimidine-7-carboxylic acid[2,6-difluoro-3-(propane-1-sulfonylamino)-phenyl]-amide] | < 0.1 | < 1 | 0.0184
2 | CCS(=O)(=O)Nc1ccc(F)c(NC(=O)c2csc3c(N)ncnc23)c1F [Example 2, 4-Amino-thieno pyrimidine-7-carboxylic acid (3-ethanesulfonylamino-2,6-difluoro-phenyl)-amide] | < 0.1 | < 1 | 0.012
3 | CCS(=O)(=O)Nc1ccc(Cl)c(NC(=O)c2csc3c(N)ncnc23)c1F [Example 3, 4-Amino-thieno[3,2-d] pyrimidine-7-carboxylic acid (6-chloro-3-ethane-sulfonylamino-2-fluoro-phenyl)-amide] | < 0.1 | < 1 | 0.00389
4 | CCS(=O)(=O)Nc1ccc(F)c(NC(=O)c2csc3c(N)ncnc23)c1Cl [Example 4, 4-Amino-thieno[3,2-d] pyrimidine-7-carboxylic acid (2-chloro-3-ethane-sulfonylamino-6-fluoro-phenyl)-amide] | < 0.1 | < 1 | 0.00425
5 | CCCS(=O)(=O)Nc1ccc(F)c(NC(=O)c2csc3c(N)ncnc23)c1Cl [Example 5, 4-Amino-thieno[3,2-d] pyrimidine-7-carboxylic acid [2-chloro-6-fluoro-3-(propane-1-sulfonyl-amino)-phenyl]-amide] | < 0.1 | < 1 | 0.00086
6 | CCCS(=O)(=O)Nc1ccc(F)c(NC(=O)c2csc3c(N)ncnc23)c1F [Example 6, 4-Amino-thieno[3,2-d] pyrimidine-7-carboxylic acid [2,6-difluoro-3-(propane-1-sulfonylamino)-phenyl]-amide] | < 0.1 | < 1 | 0.00289
7 | CCCS(=O)(=O)Nc1ccc(Cl)c(NC(=O)c2csc3c(N)ncnc23)c1F [Example 7, 4-Amino-thieno[3,2-d] pyrimidine-7-carboxylic acid [6-chloro-2-fluoro-3-(propane-1-sulfonyl-amino)-phenyl]-amide] | < 0.1 | < 1 | 0.00101
8 | CC(C)CS(=O)(=O)Nc1ccc(F)c(NC(=O)c2csc3c(N)ncnc23)c1Cl [Example 8, 4-Amino-thieno[3,2-d]pyrimidine-7-carboxylic acid[2-chloro-6-fluoro-3-(2-methyl-propane-1-sulfonylamino)-phenyl]-amide] | < 0.1 | < 1 | 0.0006
9 | CCCS(=O)(=O)Nc1ccc(Cl)c(NC(=O)c2csc3c(N)ncnc23)c1Cl [Example 9, 4-Amino-thieno[3,2-d]pyrimidine-7-carboxylic acid[2,6-dichloro-3-(propane-1-sulfonylamino)-phenyl]-amide] | < 0.1 | < 1 | 0.0001
10 | Nc1ncnc2c(C(=O)Nc3c(F)c(F)cc(NS(=O)(=O)CCCF)c3F)csc12 [Example 10, 4-Amino-thieno[3,2-d]pyrimidine-7-carboxylic acid[2,3,6-trifluoro-5-(3-fluoro-propane-1-sulfonylamino)-phenyl]-amide] | < 0.1 | < 1 | 0.00072
11 | Nc1ncnc2c(C(=O)Nc3c(F)ccc(NS(=O)(=O)c4ccccc4)c3F)csc12 [Example 11, 4-Amino-thieno[3,2-d]pyrimidine-7-carboxylic acid (3-benzenesulfonylamino-2,6-difluoro-phenyl)-amide] | < 0.1 | < 1 | 0.00089
12 | Nc1ncnc2c(C(=O)Nc3c(F)ccc(NS(=O)(=O)c4ccco4)c3F)csc12 [Example 12, 4-Amino-thieno[3,2-d]pyrimidine-7-carboxylic acid[2,6-difluoro-3-(furan-2-sulfonylamino)-phenyl]-amide] | < 0.1 | < 1 | 0.00022
13 | Nc1ncnc2c(C(=O)Nc3c(Cl)ccc(NS(=O)(=O)CCCF)c3F)csc12 [Example 13, 4-Amino-thieno[3,2-d]pyrimidine-7-carboxylic acid[6-chloro-2-fluoro-3-(3-fluoro-propane-1-sulfonylamino)-phenyl]-amide] | < 0.1 | < 1 | 0.0001
14 | Nc1ncnc2c(C(=O)Nc3c(F)ccc(NS(=O)(=O)CCCF)c3F)csc12 [Example 14, 4-Amino-thieno[3,2-d] pyrimidine-7-carboxylic acid [2,6-difluoro-3-(3-fluoro-propane-1-sulfonylamino)-phenyl]-amide] | < 0.1 | < 1 | 0.0006
15 | Nc1ncnc2c(C(=O)Nc3c(F)ccc(NS(=O)(=O)CCCF)c3Cl)csc12 [Example 15, 4-Amino-thieno[3,2-d] pyrimidine-7-carboxylic acid [2-chloro-6-fluoro-3-(3-fluoro-propane-1-sulfonylamino)-phenyl]-amide] | < 0.1 | < 1 | 0.0002
16 | Nc1ncnc2c(C(=O)Nc3c(F)ccc(NS(=O)(=O)CC4CC4)c3Cl)csc12 [Example 16, 4-Amino-thieno[3,2-d] pyrimidine-7-carboxylic acid (2-chloro-3-cycloprop-ylmethanesulfonyl-amino-6-fluoro-phenyl)-amide] | < 0.1 | < 1 | 0.0019
17 | CCCS(=O)(=O)Nc1cc(F)cc(NC(=O)c2csc3c(N)ncnc23)c1Cl [Example 17, 4-Amino-thieno[3,2-d] pyrimidine-7-carboxylic acid [2-chloro-5-fluoro-3-(propane-1-sulfonyl-amino)-phenyl]-amide] | < 0.1 | < 1 | 0.0014
18 | Nc1ncnc2c(C(=O)Nc3c(F)ccc(NS(=O)(=O)CC4CC4)c3F)csc12 [Example 18, 4-Amino-thieno[3,2-d] pyrimidine-7-carboxylic acid (3-cyclopropyl-methanesulfonyl-amino-2,6-di-fluoro-phenyl)-amide] | < 0.1 | < 1 | 0.0074
19 | CC(C)CS(=O)(=O)Nc1ccc(F)c(NC(=O)c2csc3c(N)ncnc23)c1F [Example 19, 4-Amino-thieno[3,2-d] pyrimidine-7-carboxylic acid [2,6-difluoro-3-(2-methyl-propane-1-sulfonylamino)-phenyl]-amide] | < 0.1 | < 1 | 0.0026
20 | CCCS(=O)(=O)Nc1cc(F)cc(NC(=O)c2csc3c(N)ncnc23)c1F [Example 20, 4-Amino-thieno[3,2-d] pyrimidine-7-carboxylic acid [2,5-difluoro-3-(propane-1-sulfonyl-amino)-phenyl]-amide] | < 0.1 | < 1 | 0.0057
21 | CCCS(=O)(=O)Nc1cc(Cl)cc(NC(=O)c2csc3c(N)ncnc23)c1F [Example 21, 4-Amino-thieno[3,2-d] pyrimidine-7-carboxylic acid [5-chloro-2-fluoro-3-(propane-1-sulfonyl-amino)-phenyl]-amide] | < 0.1 | < 1 | 0.0471
22 | CC(C)CS(=O)(=O)Nc1ccc(Cl)c(NC(=O)c2csc3c(N)ncnc23)c1F [Example 22, 4-Amino-thieno[3,2-d] pyrimidine-7-carboxylic acid [6-chloro-2-fluoro-3-(2-methyl-propane-1-sulfonylamino)-phenyl]-amide] | < 0.1 | < 1 | 0.002
23 | CCCS(=O)(=O)Nc1cc(F)c(F)c(NC(=O)c2csc3c(N)ncnc23)c1F [Example 23, 4-Amino-thieno[3,2-d] pyrimidine-7-carboxylic acid [2,3,6-trifluoro-5-(pro-pane-1-sulfonyl-amino)-phenyl]-amide] | < 0.1 | < 1 | 0.0008
24 | Nc1ncnc2c(C(=O)Nc3c(Cl)ccc(NS(=O)(=O)CCCF)c3Cl)csc12 [Example 24, 4-Amino-thieno[3,2-d] pyrimidine-7-carboxylic acid [2,6-dichloro-3-(3-fluoro-propane-1-sulfonylamino)-phenyl]-amide] | < 0.1 | < 1 | 0.00011
